# Results reported in PubChem BioAssay AID1963831 (Molecular Pharmacology Branch, DTP, NCI, 2024).
# Several values for one entry are separate records, joined by “and”; a condition that tells them apart may be missing. Equal entries are not always repeated.
# System: 889142-216-R-J1-PDC complex spheroid viability
# Assay: Anticancer human tumor 889142-216-R-J1-PDC patient-derived bladder carcinoma cell line growth inhibition [POLQ]
# Settings: for viability, T/C: stronger effect = lower value
# Experimental: Multicellular complex tumor spheroid response to Polymerase (POL) inhibitors (novobiocin, ART-558, RP6685) in combination with a variety of drugs and investigational agents in selected tumor cell lines
# The POL inhibitors (novobiocin, ART-558, and RP6685) were evaluated both individually and in combination with standard of care and investigational anticancer small molecules within a complex spheroid model of solid tumors. . Complex spheroids include a stromal component modeled by human endothelial cells (HUVEC) and fibroblasts modeled by human mesenchymal stem cells (MSCs). The concentration ranges selected for each drug and investigational agent were based upon clinically achievable concentrations if the clinical Cmax of the agent was known.
# Compounds. The drugs and investigational agents: novobiocin (NSC847541), ART-558 (NSC835418), RP-6685 (NSC848927), peposertib (NSC802822), ceralasertib (NSC780249), elimusertib (NSC800525), camonsertib (NSC841442), AZD-1390 (NSC803789), olaparib (NSC753686), talazoparib (NSC767125), rucaparib (NSC756644), sotorasib (NSC818433), MRTX-1133 (NSC836407), SN-38 (NSC673596), topotecan (NSC609699), epotoside (NSC141540), doxorubicin (NSC123127), gemcitabine (NSC613327), 5-fluorouracil (NSC19893), paclitaxel (NSC125973), vemurafenib (NSC761431), MSA-2 (NSC828583), SN-011 (NSC837082), adavosertib (NSC754352), prexasertib (NSC758257), carboplatin (NSC241240) and oxaliplatin (NSC266046), were obtained from the National Cancer Institute (NCI) Developmental Therapeutics Program Chemical Repository (21). The FDA-approved anticancer drug set is available from the Developmental Therapeutics Program at https://dtp.cancer.gov/organization/dscb/obtaining/. […] The stock solutions were prepared in dimethyl sulfoxide (DMSO, Sigma-Aldrich, St. Louis, MO, cat. D2650), except for the platinum compounds which were prepared in saline (Quality Biological, Gaithersburg, MD, cat. 114-055-101), at 800-fold the tested concentration and stored at -70 degrees C prior to their use. All drugs and investigational agents were tested over a range starting from a high concentration at or near the clinical Cmax and decreasing in half-log increments. If the clinical Cmax for an agent had not been determined, the highest concentration tested was 10 microM, except for SN-38, which was tested at a high concentration of 1 microM.
# Cell Culture. All cells were maintained in an incubator at 37 degrees C and 5% CO2 with 95% humidity. The PDC lines were cultured according to standard operating procedures established by the NCI PDMR (https://pdmr.cancer.gov). Table 3 of the manuscript, lists the cell lines along with the number of the three cell types plated to form the mct-spheroids and media for tumor cell growth. After thawing, all PDC lines, except 997537-175-T-J1-PDC and 415267-285-R-J2-PDC, were cultured in Matrigel-coated flasks prepared with a working solution of 1X Ham's F-12 nutrient mix, without supplementation (Thermo Fisher Scientific, cat. 11765054), 100 U/mL penicillin-streptomycin (Thermo Fisher Scientific, cat. 15140122), and 2.5% Matrigel (Corning Inc., Corning, NY, cat. 354248) for the first three passages. The two PDC lines 997537-175-T-J1-PDC and 415267-285-R-J2-PDC were cultured on uncoated flasks. The 857933-349-R-J2-PDC line was cultured in 6C/Colon 1B media containing advanced DMEM/F-12 (Thermo Fisher Scientific, cat. 12634028), 10 mM HEPES (Thermo Fisher Scientific, cat. 15630080), 1X GlutaMAX supplement (Thermo Fisher Scientific, cat. 35050061), 0.1 mg/mL primocin (InvivoGen, San Diego, CA, cat. ant-pm-2), 10% defined fetal bovine serum, heat inactivated (HyClone Laboratories Inc., Logan, UT, cat. SH30070.03HI), 50% L-WRN conditioned media (ATCC, cat. CRL-3276), 1.25 mM N-Acetyl-L-cysteine (Sigma-Aldrich, cat. A9165), 10 mM nicotinamide (Sigma-Aldrich, cat. N0636), 1X B-27 supplement (Thermo Fisher Scientific, cat. 17504044), 1X N-2 supplement (Thermo Fisher Scientific, cat. […]
# 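Further: spheroids exposed to compounds for seven days.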
# 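Wherever viability, T/C is given: 100% = DMSO vehicle control viability.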
smiles,measurement,setting,value
CC(C)n1c(=O)n(C)c2cnc3cc(F)c(-c4ccc(OCCCN5CCCCC5)nc4)cc3c21,"viability, T/C",compound 0.0316 µM,78.6% and 82.9% and 98.3%
same,"viability, T/C",compound 0.1 µM,101% and 92.7% and 85.2%
same,"viability, T/C",compound 0.316 µM,67.3% and 87% and 77.9%
same,"viability, T/C",compound 1 µM,63.5% and 85.9% and 71.9%
same,"viability, T/C",compound 3.16 µM,56.2% and 77.5% and 64.2%
same,"viability, T/C",compound 10 µM,17.9% and 67.2% and 43.8%
same,IC50,curve of compound,3.19 µM and > 10 µM and 7.64 µM
O=C(c1cc(Cc2n[nH]c(=O)c3ccccc23)ccc1F)N1CCN(C(=O)C2CC2)CC1 + Cc1cccc(N(C)C(=O)C2C(O)CCN2c2nc(C)cc(C(F)(F)F)c2C#N)c1,IC50,"curve of first compound, second compound 0.0316 µM",> 10 µM
same,IC50,"curve of first compound, second compound 0.1 µM",> 10 µM
same,IC50,"curve of first compound, second compound 0.316 µM",> 10 µM
same,IC50,"curve of first compound, second compound 1 µM",> 10 µM
same,IC50,"curve of first compound, second compound 3.16 µM",> 10 µM
same,IC50,"curve of first compound, second compound 10 µM",> 10 µM
same,"viability, T/C","second compound 0.0316 µM, first compound 0.0316 µM",103%
same,"viability, T/C","second compound 0.0316 µM, first compound 0.1 µM",99.7%
same,"viability, T/C","second compound 0.0316 µM, first compound 0.316 µM",108%
same,"viability, T/C","second compound 0.0316 µM, first compound 1 µM",83.3%
same,"viability, T/C","second compound 0.0316 µM, first compound 3.16 µM",70.1%
same,"viability, T/C","second compound 0.0316 µM, first compound 10 µM",65%
same,"viability, T/C","second compound 0.1 µM, first compound 0.0316 µM",106%
same,"viability, T/C","second compound 0.1 µM, first compound 0.1 µM",116%
same,"viability, T/C","second compound 0.1 µM, first compound 0.316 µM",95%
same,"viability, T/C","second compound 0.1 µM, first compound 1 µM",98.2%
same,"viability, T/C","second compound 0.1 µM, first compound 3.16 µM",87.9%
same,"viability, T/C","second compound 0.1 µM, first compound 10 µM",63.6%
same,"viability, T/C","second compound 0.316 µM, first compound 0.0316 µM",92.2%
same,"viability, T/C","second compound 0.316 µM, first compound 0.1 µM",98.8%
same,"viability, T/C","second compound 0.316 µM, first compound 0.316 µM",97.5%
same,"viability, T/C","second compound 0.316 µM, first compound 1 µM",80.8%
same,"viability, T/C","second compound 0.316 µM, first compound 3.16 µM",72%
same,"viability, T/C","second compound 0.316 µM, first compound 10 µM",64.3%
same,"viability, T/C","second compound 1 µM, first compound 0.0316 µM",105%
same,"viability, T/C","second compound 1 µM, first compound 0.1 µM",98.5%
same,"viability, T/C","second compound 1 µM, first compound 0.316 µM",84.7%
same,"viability, T/C","second compound 1 µM, first compound 1 µM",77.3%
same,"viability, T/C","second compound 1 µM, first compound 3.16 µM",88.5%
same,"viability, T/C","second compound 1 µM, first compound 10 µM",68.5%
same,"viability, T/C","second compound 3.16 µM, first compound 0.0316 µM",91.3%
same,"viability, T/C","second compound 3.16 µM, first compound 0.1 µM",91.7%
same,"viability, T/C","second compound 3.16 µM, first compound 0.316 µM",88.8%
same,"viability, T/C","second compound 3.16 µM, first compound 1 µM",81.5%
same,"viability, T/C","second compound 3.16 µM, first compound 3.16 µM",73.7%
same,"viability, T/C","second compound 3.16 µM, first compound 10 µM",52.9%
same,"viability, T/C","second compound 10 µM, first compound 0.0316 µM",81.8%
same,"viability, T/C","second compound 10 µM, first compound 0.1 µM",81.3%
same,"viability, T/C","second compound 10 µM, first compound 0.316 µM",68.7%
same,"viability, T/C","second compound 10 µM, first compound 1 µM",85.8%
same,"viability, T/C","second compound 10 µM, first compound 3.16 µM",70.1%
same,"viability, T/C","second compound 10 µM, first compound 10 µM",52.4%
